Key:
Format in all cases: cell-based, human
[1] = test system: post-thaw islet-like clusters; assay: Single-cell RNA sequencing of post-thaw islet-like clusters; conditions: second protocol, frozen at EN+1
Protocol: While applying the second differentiation protocol, clusters were frozen at EN+1 using the described cryoprotective medium of 7.2% DMSO+2.8% EG added within the stepwise cryoprotection treatment and freezing procedure A. After thawing the EN clusters as described, the clusters were differentiated into islet-like clusters according to the second protocol (Control) in comparison to the second protocol with extension of GSI and without T3 addition. Single-cell RNA sequencing was carried out after thawing and differentiation into islet-like clusters, after dissociation of clusters into single cells.

ILC cells [2] = assay: Flow cytometry of islet-like clusters differentiated from hiPSC with the combination protocol
Protocol: Beta cell differentiation from iPSC aggregates was carried out using several hiPSC lines with a new protocol derived by combining two published protocols (Nostro et al., Stem Cell Reports (2015), 4(4): 591-604; Rezania et al., Nat Biotechnol (2014), 32(11): 1121-1133), further referred to as “combination protocol”. iPSCs were seeded as single cells in suspension at 1×10^6 cells/mL in mTeSR1 (StemCell Technologies Inc.; 05850) with […] Y-27632 and kept in culture in 100 mL spinner flasks on a stirring platform to form aggregates under low shear conditions (see e.g. Fok and Zandstra, Stem Cells 2005; 23:1333-1342). At day 0 of differentiation, iPSC clusters were treated with Basal medium 1 (BM1) with the addition of 100 ng/mL Activin A, 2 μM CHIR 99021 and 10 μM Y-27632 to induce definitive endoderm. On subsequent days, media change was performed as described below, and occurred daily up to day 14, every other day after that. Definitive endoderm (DE) was induced from day 0 to day 3 and gut tube (GT) was patterned from day 3 to day 6. On day 6, pancreatic progenitors (PP) were induced until day 11. Commitment to the endocrine (EN) lineage was then performed between day 11 and day 14, and day 14 EN clusters were differentiated to islet-like clusters (ILCs) until day 24 (FIG. 1).
As a result, the content of chromogranin A^pos cells rose to levels above 95% (FIGS. 2A, 2C).
The addition of gamma secretase inhibitor and removal of T3 led to increased populations of pancreatic islet endocrine cells in islet-like clusters. […] In addition, the somatostatin^pos population was increased in islet-like clusters generated with the addition of gamma secretase inhibitor and removal of T3 (FIG. 7; FIG. 11; FIG. 14; FIG. 15A).
Quantification of the EC cell population in islet-like clusters was performed by FACS for serotonin^pos and C-peptide^neg cells. While islet-like clusters generated using the combination protocol (Control) contain 30% of pancreatic EC cells, the addition of gamma secretase inhibitor in absence of T3 (+GSI/−T3) led to a drastic reduction of this population, down to levels <15% (FIGS. 5A, 5B).

ILC cells [3] = assay: Flow cytometry of islet-like clusters obtained with the second protocol; conditions: second protocol with addition of GSI and removal of T3
Excerpt: As the combination protocol, the second protocol starts with seeding and aggregation of single pluripotent cells in suspension, and proceeds through the same intermediate stages of pancreatic embryonic development (definitive endoderm/DE, primitive gut tube, pancreatic progenitors, endocrine differentiation) to beta cell-containing islet-like clusters (ILCs) containing C-peptide^pos/insulin^pos/NKX6.1^pos beta cells. Differences to the combined protocol include the addition of a combination of BMP4 and bFGF during the first day of DE induction (see also Example 4), and longer durations of media incubations during pancreatic progenitor and endocrine induction, resulting in an overall longer time from start of differentiation to EN stage (EN stage on day 16 instead of day 14). Similar to the combined protocol, the second protocol was modified by additional gamma secretase inhibitor treatment in absence of T3 during the EN to ILC transition. The latter version of the adapted protocol is referred to “second protocol +GSI/−T3”.

islet-like clusters = assay: Single cell RNA sequencing and histology of islet-like clusters
Protocol: Beta cell differentiation from iPSC aggregates was carried out using several hiPSC lines with a new protocol derived by combining two published protocols (Nostro et al., Stem Cell Reports (2015), 4(4): 591-604; Rezania et al., Nat Biotechnol (2014), 32(11): 1121-1133), further referred to as “combination protocol”. iPSCs were seeded as single cells in suspension at 1×10^6 cells/mL in mTeSR1 (StemCell Technologies Inc.; 05850) with […] Y-27632 and kept in culture in 100 mL spinner flasks on a stirring platform to form aggregates under low shear conditions (see e.g. Fok and Zandstra, Stem Cells 2005; 23:1333-1342). At day 0 of differentiation, iPSC clusters were treated with Basal medium 1 (BM1) with the addition of 100 ng/mL Activin A, 2 μM CHIR 99021 and 10 μM Y-27632 to induce definitive endoderm. On subsequent days, media change was performed as described below, and occurred daily up to day 14, every other day after that. Definitive endoderm (DE) was induced from day 0 to day 3 and gut tube (GT) was patterned from day 3 to day 6. On day 6, pancreatic progenitors (PP) were induced until day 11. Commitment to the endocrine (EN) lineage was then performed between day 11 and day 14, and day 14 EN clusters were differentiated to islet-like clusters (ILCs) until day 24 (FIG. 1). […]

[4] = test system: post-thaw islet-like clusters; assay: Flow cytometry of post-thaw islet-like clusters; conditions: combination protocol
Protocol: (§1) Using the combination protocol, induced pluripotent stem cells were differentiated into EN clusters. […] Clusters were cryoprotected before freezing by addition of the basal cryoprotective medium, consisting of KnockOut™ Serum Replacement, 10 μM ROCKi and 2 μM fatty acids, with increasing concentrations of DMSO and EG, in combination with incubation steps at decreasing temperatures. The DMSO and EG concentrations during the cryoprotection protocol and the corresponding stock concentrations, along with incubation times and temperatures, are given in table 1.
EN clusters, transferred to cryogenic vials, were frozen directly after the stepwise cryoprotection treatment in a controlled rate freezer using the following protocol (freezing procedure A): • 1. The sample is cooled-down to −7.5° C. (+/−0.7° C.); • 2. Induction of nucleation by mechanical agitation and inducing a supercool spot at the outer vial wall; • 3. Incubation for 15-minutes at −7.5° C.; • 4. Cool-down of sample to −40° C. at a rate of 0.3° C. per minute; • 5. Immersion of sample in liquid nitrogen; • 6. Transfer to liquid N2 tank for long-term storage.
After low-temperature storage of at least seven days, the EN clusters were thawed rapidly in a 37° C. waterbath and the cryoprotective medium is diluted with thawing medium, consisting of differentiation medium for the EN-stage as described previously, according to the combination protocol, supplemented with 20% KnockOut™ Serum Replacement and 10 μM ROCKi. After resuspension in fresh thawing medium, the EN clusters are cultured under standard culture conditions. The supplements in the thawing medium are removed by medium change after 24 hours, using differentiation medium for the EN-stage, according to the combination protocol, for further differentiation. Afterwards, the culture medium was refreshed regularly. […]
Recovery rates were determined after post-thaw culture of 4-6 days, i.e. differentiation into islet-like clusters, by determination of viable cell count. Clusters, dissociated into single cells, were stained and analysed for different markers with flow cytometry.

[5] = test system: post-thaw islet-like clusters; assay: Post-thaw recovery rate of islet-like clusters (viable cell count); conditions: combination protocol, frozen at EN stage with Medium A, freezing procedure A; GSI without T3 after thawing
Protocol: as §1
EN clusters, transferred to cryogenic vials, were frozen directly after the stepwise cryoprotection treatment in a controlled rate freezer using the following protocol (freezing procedure A): • 1. The sample is cooled-down to −7.5° C. (+/−0.7° C.); • 2. […]
Recovery rates were determined after post-thaw culture of 4-6 days, i.e. differentiation into islet-like clusters, by determination of viable cell count. Clusters, dissociated into single cells, were stained and analysed for different markers with flow cytometry. […]
Subsequent to the cryoprotection, the clusters were frozen using freezing procedure A, as described. […] Recovery rates of post-thaw islet-like clusters were determined by determination of viable cell count. Viability was determined with a viability staining with PI and FDA, imaged with a fluorescence microscope. […]

[6] = addition of gamma secretase inhibitor and removal of T3, compared to control
[7] = GSI in absence of T3 after thawing

Q: What does the source list for `C[C@H](NC(=O)Cc1cc(F)cc(F)c1)C(=O)N[C@H]1N=C(c2ccccc2)c2ccccc2N(C)C1=O` [gamma secretase inhibitor, gamma secretase inhibitor XXI (CAS 209986-17-4)]?
A: population of ductal cells, post-thaw ([1]; GSI without T3): decreased to low levels; populations of ARX^pos cells, post-thaw, versus Ctrl ([1]; extended GSI in absence of T3): increased; populations of beta-cells, post-thaw, versus Ctrl ([1]; extended GSI in absence of T3): increased; somatostatin (SST)^pos cells, post-thaw, versus Ctrl ([1]; extended GSI in absence of T3): increased; content of chromogranin A^pos cells (ILC cells [2]; addition of gamma secretase inhibitor (1 μM, day 14-17) and removal of T3 after EN stage, combination protocol): above 95%; glucagon^pos cells (ILC cells [2]; [6]): Significantly higher numbers; NKX6.1^pos/C-peptide^pos beta cell population (ILC cells [2]; addition of gamma secretase inhibitor and removal of T3, FACS): > 65%; VMAT1/SLC18A1 expression (ILC cells [2]; addition of gamma secretase inhibitor in absence of T3): similarly reduced; pancreatic EC cells (serotonin^pos and C-peptide^neg) (ILC cells [2]; addition of gamma secretase inhibitor in absence of T3, combination protocol, control 30%): < 15%; NKX6.1^pos/C-peptide^pos cells (ILC cells [3]): above 65%; serotonin^pos/C-peptide^neg cells (ILC cells [3]): only a small fraction; ductal cells (SOX9^pos/CFTR^pos) (islet-like clusters; addition of gamma secretase inhibitor and removal of T3): Only residual ductal cells; somatostatin^pos population (islet-like clusters; [6]): increased; number of Chromogranin^pos cells in post-thaw islet-like clusters versus control [4, 7]: increases; number of beta-cells in post-thaw islet-like clusters versus control [4, 7]: increases; C-peptide^neg/serotonin^pos cell levels in post-thaw islet-like clusters versus control ([4]; GSI while omitting T3 after thawing): decreases; post-thaw recovery versus control [5]: increases the post-thaw recovery

Source: patent publication US20250283046A1, “New Cell Populations and Means and Methods for their Differentiation and Preservation” (EVOTEC INTERNATIONAL GMBH, priority 2022, published 2025)
